Target: T1, PFK2-N (Toxoplasma gondii, UniProt A0A125YKV6)
T1 construct: gene PFKII; N-terminal phosphofructokinase domain, residues 1-595; recombinant, E. coli Transetta (DE3), plasmid pESUMO-PFK2N (His-SUMO vector), Ni2+ column
T1 sequence (A0A125YKV6 1-595): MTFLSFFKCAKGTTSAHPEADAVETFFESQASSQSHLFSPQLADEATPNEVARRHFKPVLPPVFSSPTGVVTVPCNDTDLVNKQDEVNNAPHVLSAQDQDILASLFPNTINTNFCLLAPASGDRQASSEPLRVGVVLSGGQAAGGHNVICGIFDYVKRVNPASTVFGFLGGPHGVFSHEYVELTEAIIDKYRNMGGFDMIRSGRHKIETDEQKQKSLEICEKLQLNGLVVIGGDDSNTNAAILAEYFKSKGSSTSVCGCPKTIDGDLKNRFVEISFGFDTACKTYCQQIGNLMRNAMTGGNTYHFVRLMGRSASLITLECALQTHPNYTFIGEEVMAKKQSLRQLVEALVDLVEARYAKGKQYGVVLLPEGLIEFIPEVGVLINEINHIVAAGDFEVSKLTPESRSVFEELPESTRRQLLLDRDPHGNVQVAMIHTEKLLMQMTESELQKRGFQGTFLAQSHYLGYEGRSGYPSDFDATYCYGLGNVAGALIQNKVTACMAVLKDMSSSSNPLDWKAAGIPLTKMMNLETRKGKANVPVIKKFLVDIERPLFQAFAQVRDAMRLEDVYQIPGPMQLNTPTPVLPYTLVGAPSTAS
Assay: NADH-coupled OD340 assay (PFP activity kit)
Type: biochemical
Details: co-substrate F6P 4 mM

Structure (SMILES): O=P(O)(O)OP(=O)(O)O [PPi]
- NADH-coupled OD340 assay (PFP activity kit): individually purified and assayed for the PPi dependent PFK activity

Reference: article PMC8836295, “Essential role of pyrophosphate homeostasis mediated by the pyrophosphate-dependent phosphofructokinase in Toxoplasma gondii” (PLoS Pathogens, 2022)
